Results reported in patent publication US8383637B2, “2-amino-quinazoline derivatives useful as inhibitors of β-secretase (BACE)” (Jansssen Pharmaceutica N.V., priority 2004, dated 2013).

Biological target: T1, β-secretase(BACE) (Homo sapiens, UniProt P56817)
T1 construct: purchased Panvera
Test: BACE FS1% Inhibition Assay
Format: biochemical
Details: FS1 substrate; for % Inhibition (FS) 10 μM: 10 μM test compound
How it was run: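 Human BACE (4 μg/mL working solution) preincubated 20 min at room temperature with compound, then FS1 substrate (300 μg/mL working solution) added and incubated 1 h at room temperature. Percent inhibition calculated at each compound concentration against blank and vehicle controls.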

T1 sequence (P56817 46-501): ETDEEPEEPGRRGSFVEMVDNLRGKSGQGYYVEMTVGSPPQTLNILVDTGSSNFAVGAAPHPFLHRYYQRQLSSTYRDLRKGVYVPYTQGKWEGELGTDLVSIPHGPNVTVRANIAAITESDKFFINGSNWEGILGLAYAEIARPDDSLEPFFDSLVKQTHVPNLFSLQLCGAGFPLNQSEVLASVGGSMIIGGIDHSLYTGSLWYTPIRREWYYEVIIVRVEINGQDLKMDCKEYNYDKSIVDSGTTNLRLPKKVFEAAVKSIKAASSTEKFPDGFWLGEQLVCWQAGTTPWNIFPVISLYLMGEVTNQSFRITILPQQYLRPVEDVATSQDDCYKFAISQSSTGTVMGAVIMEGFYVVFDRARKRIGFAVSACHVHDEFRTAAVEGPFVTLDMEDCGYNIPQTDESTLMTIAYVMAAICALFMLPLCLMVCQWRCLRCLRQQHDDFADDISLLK

SMILES: CCCN(CC1CC1)C(=O)c1cccc(CN2Cc3cc(Oc4ccccc4)ccc3N=C2N)c1 [Compound 197]
- % Inhibition (FS) 0.3 μM (0.3 μM test compound): <30%
- % Inhibition (FS) 1 μM (1 μM test compound): <30%
- % Inhibition (FS) 3 μM (3 μM test compound): 32%

SMILES: CCC(c1cccc(C(=O)N(C)C2CCCCC2)c1)N1Cc2cc(-c3ccccc3OC)ccc2N=C1N (racemic) [Compound 395]
- % Inhibition (FS) 0.3 μM (0.3 μM test compound): 69%
- % Inhibition (FS) 1 μM (1 μM test compound): 107%
- % Inhibition (FS) 3 μM (3 μM test compound): 118%

SMILES: CC(CC(=O)NCCN1Cc2cc(-c3ccccc3F)ccc2N=C1N)C(F)(F)F (stereo not drawn) [Compound 681]
- % Inhibition (FS) (0.3 μM test compound): 67%
- % Inhibition (FS) (1 μM test compound): 100%
- % Inhibition (FS) (3 μM test compound): 103%

SMILES: CN(C(=O)CCC(C1CCCCC1)N1Cc2cc(Oc3ccccc3)ccc2N=C1N)C1CCC(c2nn[nH]n2)CC1 (stereo not drawn) [Compound 770]
- % Inhibition (FS) (0.3 μM test compound): <30%
- % Inhibition (FS) (1 μM test compound): <30%
- % Inhibition (FS) (3 μM test compound): <30%

SMILES: COc1ccc(-c2ccc3c(c2)CN(C(CCC(=O)N(C)C2CCCCC2)C2CCCCC2)C(N)=N3)cc1 (racemic) [Compound 226]
- % Inhibition (FS) 0.3 μM (0.3 μM test compound): <30%
- % Inhibition (FS) 1 μM (1 μM test compound): <30%
- % Inhibition (FS) 3 μM (3 μM test compound): 54%

SMILES: CN(C(=O)CC[C@@H](C1CCCCC1)N1Cc2cc(Oc3ccccc3)ccc2N=C1N)C1CCC(=O)CC1 [Compound 711]
- % Inhibition (FS) (0.3 μM test compound): <30%
- % Inhibition (FS) (1 μM test compound): 43%
- % Inhibition (FS) (3 μM test compound): 113%

SMILES: NC1=Nc2ccc(Oc3ccccc3)cc2CN1C(CNC(=O)C1CCCC1)C1CCCCC1 (stereo not drawn) [Compound 295]
- % Inhibition (FS) 0.3 μM (0.3 μM test compound): 79%
- % Inhibition (FS) 1 μM (1 μM test compound): 106%
- % Inhibition (FS) 3 μM (3 μM test compound): 116%

SMILES: CC(=O)c1cccc(-c2ccc3c(c2)CN(CCNC(=O)c2cc(C)oc2C)C(N)=N3)c1 [Compound 588]
- % Inhibition (FS) 0.3 μM (0.3 μM test compound): <30%
- % Inhibition (FS) 1 μM (1 μM test compound): <30%
- % Inhibition (FS) 3 μM (3 μM test compound): <30%

SMILES: CCCC=Cc1ccc2c(c1)CN(CCNC(=O)CCC)C(N)=N2 [Compound 571]
- % Inhibition (FS) 0.3 μM (0.3 μM test compound): <30%
- % Inhibition (FS) 1 μM (1 μM test compound): <30%
- % Inhibition (FS) 3 μM (3 μM test compound): <30%

SMILES: NC1=Nc2ccc(Oc3ccccc3)cc2CN1CCCNC1CCCCC1 [Compound 403]
- % Inhibition (FS) 0.3 μM (0.3 μM test compound): <30%
- % Inhibition (FS) 1 μM (1 μM test compound): <30%
- % Inhibition (FS) 3 μM (3 μM test compound): 66%

SMILES: NC1=Nc2ccc(-c3ccccc3Cl)cc2CN1CCNC(=O)C1CCOCC1 [Compound 689]
- % Inhibition (FS) (0.3 μM test compound): 33%
- % Inhibition (FS) (1 μM test compound): 82%
- % Inhibition (FS) (3 μM test compound): 102%

SMILES: NC1=Nc2ccc(Oc3ccccc3)cc2CN1C1CCN(C(=O)C2CCCCC2)CC1 [Compound 522]
- inhibition at 0.3 µM (0.3 μM test compound, read-out: % Inhibition (FS) 0.3 μM): < 30%
- inhibition at 1 µM (1 μM test compound, read-out: % Inhibition (FS) 1 μM): < 30%
- inhibition at 3 µM (3 μM test compound, read-out: % Inhibition (FS) 3 μM): 79%

SMILES: CN(C(=O)c1cccc(CN2Cc3cc(OCC4CCCC4)ccc3N=C2N)c1)C1CCCCC1 [Compound 521]
- % Inhibition (FS) 0.3 μM (0.3 μM test compound): <30%
- % Inhibition (FS) 1 μM (1 μM test compound): <30%
- % Inhibition (FS) 3 μM (3 μM test compound): <30%

SMILES: CCCC=Cc1ccc2c(c1)CN(CCNC(=O)c1cc(C)oc1C)C(N)=N2 [Compound 587]
- % Inhibition (FS) 0.3 μM (0.3 μM test compound): <30%
- % Inhibition (FS) 1 μM (1 μM test compound): <30%
- % Inhibition (FS) 3 μM (3 μM test compound): <30%

SMILES: NC1=Nc2ccc(Oc3ccccc3)cc2CN1C1CCCN(C(=O)C2CCCCC2)C1 (stereo not drawn) [Compound 611]
- % Inhibition (FS) 0.3 μM (0.3 μM test compound): <30%
- % Inhibition (FS) 1 μM (1 μM test compound): 36%
- % Inhibition (FS) 3 μM (3 μM test compound): <30%

SMILES: CC(CC(=O)NCCN1Cc2cc(-c3ccccc3Cl)ccc2N=C1N)C(F)(F)F (stereo not drawn) [Compound 683]
- % Inhibition (FS) (0.3 μM test compound): 64%
- % Inhibition (FS) (1 μM test compound): 86%
- % Inhibition (FS) (3 μM test compound): 102%

SMILES: CCCCCC1CCC(C(=O)NCCN2Cc3cc(Oc4ccccc4)ccc3N=C2N)CC1 (stereo not drawn) [Compound 182]
- % Inhibition (FS) 0.3 μM (0.3 μM test compound): <30%
- % Inhibition (FS) 1 μM (1 μM test compound): <30%
- % Inhibition (FS) 3 μM (3 μM test compound): 38%

SMILES: NC1=Nc2ccc(Oc3ccccc3)cc2CN1C1CCN(C(=O)C2CCCC2)C1 (stereo not drawn) [Compound 120]
- % Inhibition (FS) 3 μM (3 μM test compound): <30%
- % Inhibition (FS) 10 μM: 34%

SMILES: CN(C(=O)c1cccc(CN2Cc3cc(Oc4cccc(-c5ccc6ccccc6n5)c4)ccc3N=C2N)c1)C1CCCCC1 [Compound 473]
- % Inhibition (FS) 0.3 μM (0.3 μM test compound): <30%
- % Inhibition (FS) 1 μM (1 μM test compound): <30%
- % Inhibition (FS) 3 μM (3 μM test compound): <30%

SMILES: NC1=Nc2ccc(-c3ccccc3F)cc2CN1CCNC(=O)C1CCCC1 [Compound 643]
- % Inhibition (FS) 0.3 μM (0.3 μM test compound): 74%
- % Inhibition (FS) 1 μM (1 μM test compound): 92%
- % Inhibition (FS) 3 μM (3 μM test compound): 110%

SMILES: NC1=Nc2ccc(Oc3ccccc3)cc2CN1C1CCCCN(C(=O)C2CCCCC2)C1 (stereo not drawn) [Compound 551]
- % Inhibition (FS) 0.3 μM (0.3 μM test compound): <30%
- % Inhibition (FS) 1 μM (1 μM test compound): <30%
- % Inhibition (FS) 3 μM (3 μM test compound): <30%

SMILES: CN(C(=O)c1ccc2c(c1)C(N1Cc3cc(Oc4ccccc4)ccc3N=C1N)c1ccccc1-2)C1CCCCC1 (stereo not drawn) [Compound 118]
- % Inhibition (FS) 3 μM (3 μM test compound, 3 µM): 48%
- % Inhibition (FS) 10 μM (10 µM): 91%

SMILES: CSc1ccc(Sc2ccc3c(c2)CN(Cc2cccc(C(=O)N(C)C4CCCCC4)c2)C(N)=N3)cc1 [Compound 413]
- % Inhibition (FS) 0.3 μM (0.3 μM test compound): <30%
- % Inhibition (FS) 1 μM (1 μM test compound): <30%
- % Inhibition (FS) 3 μM (3 μM test compound): 53%

SMILES: CN(C(=O)c1cccc(CN2Cc3cc(OC4CCCC4)ccc3N=C2N)c1)C1CCCCC1 [Compound 520]
- % Inhibition (FS) 0.3 μM (0.3 μM test compound): <30%
- % Inhibition (FS) 1 μM (1 μM test compound): <30%
- % Inhibition (FS) 3 μM (3 μM test compound): 33%

SMILES: CN(CCN1Cc2cc(Oc3ccccc3)ccc2N=C1N)C1CCCCC1 [Compound 429]
- % Inhibition (FS) 0.3 μM (0.3 μM test compound): <30%
- % Inhibition (FS) 1 μM (1 μM test compound): <30%
- % Inhibition (FS) 3 μM (3 μM test compound): <30%

SMILES: NC1=Nc2ccc(-c3ccccc3Cl)cc2CN1CCNC(=O)C12CC3CC(CC(C3)C1)C2 [Compound 651]
- % Inhibition (FS) 0.3 μM (0.3 μM test compound): <30%
- % Inhibition (FS) 1 μM (1 μM test compound): 51%
- % Inhibition (FS) 3 μM (3 μM test compound): 96%

SMILES: COc1ccc(Nc2ccc3c(c2)CN(Cc2cccc(C(=O)N(C)C4CCCCC4)c2)C(N)=N3)cc1 [Compound 434]
- % Inhibition (FS) 0.3 μM (0.3 μM test compound): <30%
- % Inhibition (FS) 1 μM (1 μM test compound): <30%
- % Inhibition (FS) 3 μM (3 μM test compound): <30%

SMILES: CN(C(=O)c1cccc(CN2Cc3cc(OCc4ccccc4-c4ccccc4)ccc3N=C2N)c1)C1CCCCC1 [Compound 513]
- % Inhibition (FS) 0.3 μM (0.3 μM test compound): <30%
- % Inhibition (FS) 1 μM (1 μM test compound): <30%
- % Inhibition (FS) 3 μM (3 μM test compound): <30%

SMILES: COc1ccccc1-c1ccc2c(c1)CN(CCNC(=O)C1(C(N)=O)CC1)C(N)=N2 [Compound 488]
- % Inhibition (FS) 0.3 μM (0.3 μM test compound): <30%
- % Inhibition (FS) 1 μM (1 μM test compound): <30%
- % Inhibition (FS) 3 μM (3 μM test compound): <30%

SMILES: CCCCC(CC)CN(CC(CC)CCCC)C(=O)c1cccc(CN2Cc3cc(Oc4ccccc4)ccc3N=C2N)c1 (stereo not drawn) [Compound 198]
- % Inhibition (FS) 0.3 μM (0.3 μM test compound): <30%
- % Inhibition (FS) 1 μM (1 μM test compound): <30%
- % Inhibition (FS) 3 μM (3 μM test compound): <30%

SMILES: NC1=Nc2ccc(Oc3ccccc3)cc2CN1CCCCNC(=O)C1CCCCC1 [Compound 115]
- % Inhibition (FS) 3 μM (3 μM test compound): 40%
- % Inhibition (FS) 10 μM: 105%

SMILES: CC(C)CCC(=O)NCCN1Cc2cc(-c3cnc4ccccc4c3)ccc2N=C1N [Compound 675]
- % Inhibition (FS) (0.3 μM test compound): 35%
- % Inhibition (FS) (1 μM test compound): <30%
- % Inhibition (FS) (3 μM test compound): <30%

SMILES: COC1CCCC(C(=O)NCCN2Cc3cc(-c4ccccc4)ccc3N=C2N)C1 (stereo not drawn) [Compound 703]
- % Inhibition (FS) (0.3 μM test compound): <30%
- % Inhibition (FS) (1 μM test compound): 46%
- % Inhibition (FS) (3 μM test compound): 83%

SMILES: CCCCC(CC)C(=O)NCCN1Cc2cc(-c3ccccc3F)ccc2N=C1N (stereo not drawn) [Compound 648]
- % Inhibition (FS) 0.3 μM (0.3 μM test compound): 39%
- % Inhibition (FS) 1 μM (1 μM test compound): 74%
- % Inhibition (FS) 3 μM (3 μM test compound): 104%

SMILES: CC(=O)N1CCC(C(=O)NCCN2Cc3cc(C4=CCCCC4)ccc3N=C2N)CC1 [Compound 705]
- % Inhibition (FS) (0.3 μM test compound): <30%
- % Inhibition (FS) (1 μM test compound): <30%
- % Inhibition (FS) (3 μM test compound): <30%

SMILES: CSc1ccc(Nc2ccc3c(c2)CN(Cc2cccc(C(=O)N(C)C4CCCCC4)c2)C(N)=N3)cc1 [Compound 442]
- % Inhibition (FS) 0.3 μM (0.3 μM test compound): <30%
- % Inhibition (FS) 1 μM (1 μM test compound): 58%
- % Inhibition (FS) 3 μM (3 μM test compound): 101%
